Results on 24 compounds are retold here after patent US7517874B2 (priority 2007, dated 2009).

Assay [1] concerns the target human CB1 receptor (hCB1) (Homo sapiens, UniProt P21554). The experiment in a line: cell-based. Format: cell-based. Particulars: for +/− HCB1: agonist or inverse agonist at hCB1. In a few lines: (§1)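 Readout: LANCE TR-FRET cAMP, back-calculated from a concurrent standard curve and scaled between forskolin-only and forskolin + 1 μM CP55,940 wells. EC50 and intrinsic activity came from four-parameter fits.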

Assay [2] deals with T1, rat CB2 receptor (rCB2) (Rattus norvegicus, UniProt Q9QZN9).
T1 sequence (Q9QZN9 1-360): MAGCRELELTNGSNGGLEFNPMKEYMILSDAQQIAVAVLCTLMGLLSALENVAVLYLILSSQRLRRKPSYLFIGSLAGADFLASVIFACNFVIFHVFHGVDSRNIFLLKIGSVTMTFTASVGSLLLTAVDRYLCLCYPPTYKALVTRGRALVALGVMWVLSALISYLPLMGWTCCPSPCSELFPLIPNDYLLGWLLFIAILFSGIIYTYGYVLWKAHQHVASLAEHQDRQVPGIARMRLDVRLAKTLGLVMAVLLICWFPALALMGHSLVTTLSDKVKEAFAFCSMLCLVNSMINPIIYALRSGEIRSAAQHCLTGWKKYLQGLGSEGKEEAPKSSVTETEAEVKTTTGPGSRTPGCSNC
The experiment in a line: cell-based. Type of assay: cell-based. Particulars: for +/− RCB2: agonist or inverse agonist at rCB2. The procedure, abridged: as §1

[3] abbreviates: groups >100 nM-10 μM and >10 μM, cAMP, CHO-K1 hCB1, read-out: EC50 HCB1.
Where [4] appears, read: groups >100 nM-10 μM and >10 μM, cAMP, CHO-K1 rCB2, read-out: EC50 RCB2.

Read-outs that look alike come from different tables or passages of the source. Bounds are passed on as bounds.

Chain of human CB1 receptor (hCB1) (P21554 whole entry): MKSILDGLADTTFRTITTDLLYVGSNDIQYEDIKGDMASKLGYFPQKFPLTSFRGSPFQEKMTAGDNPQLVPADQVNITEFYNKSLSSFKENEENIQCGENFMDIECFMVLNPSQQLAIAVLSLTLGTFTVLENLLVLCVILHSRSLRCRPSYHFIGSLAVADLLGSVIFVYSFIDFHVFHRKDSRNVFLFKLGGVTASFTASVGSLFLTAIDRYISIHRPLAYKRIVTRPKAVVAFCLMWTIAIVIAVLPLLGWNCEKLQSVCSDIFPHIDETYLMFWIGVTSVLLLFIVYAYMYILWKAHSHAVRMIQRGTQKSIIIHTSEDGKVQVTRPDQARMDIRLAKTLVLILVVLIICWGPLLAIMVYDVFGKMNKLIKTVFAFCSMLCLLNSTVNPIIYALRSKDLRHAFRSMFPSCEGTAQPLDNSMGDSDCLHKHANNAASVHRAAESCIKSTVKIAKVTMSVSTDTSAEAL

Take `CNC(=O)[C@@H](NC(=O)c1nc(/C=C/C(C)(C)C)n2c1CN(C)CCC2)C(C)(C)C` [Compound 397, (S,E)-N-(3,3-dimethyl-1-(methylamino)-1-oxobutan-2-yl)-3-(3,3-dimethylbut-1-enyl)-8-methyl-6,7,8,9-tetrahydro-5H-imidazo[1,5-a][1,4]diazepine-1-carboxamide]: the “+/− HCB1” value in assay [1] is given as “+”. Moreover, the “+/− RCB2” value in assay [2] is “+”.

For the compound `CNC(=O)[C@@H](NC(=O)c1nc(/C=C/C2CC2)n2c1CN(C)CC2)C(C)(C)C` [Compound 273, (S,E)-3-(2-cyclopropylvinyl)-N-(3,3-dimethyl-1-(methylamino)-1-oxobutan-2-yl)-7-methyl-5,6,7,8-tetrahydroimidazo[1,5-a]pyrazine-1-carboxamide], the EC50 in assay [1] and in assay [2] was > 10000 nM throughout.

On to `CNC(=O)[C@@H](NC(=O)c1nc(-c2ccccc2)n2c1CN(c1ncccn1)CCC2)C(C)(C)C` [Compound 483, (S)-N-(3,3-dimethyl-1-(methylamino)-1-oxobutan-2-yl)-3-phenyl-8-(pyrimidin-2-yl)-6,7,8,9-tetrahydro-5H-imidazo[1,5-a][1,4]diazepine-1-carboxamide], for which the “+/− HCB1” value in assay [1] is “+”. Further, the “+/− RCB2” value in assay [2] was “−”.

As to `CN1CCn2c(-c3ccc(Cl)cc3F)nc(C(=O)NC3CCN(S(C)(=O)=O)CC3)c2C1` [Compound 213, 3-(4-chloro-2-fluorophenyl)-7-methyl-N-(1-(methylsulfonyl)piperidin-4-yl)-5,6,7,8-tetrahydroimidazo[1,5-a]pyrazine-1-carboxamide], the 50% effective concentration (EC50) in assay [1] (setting [3]) and in assay [2] (setting [4]) was > 10000 nM throughout.

`CN1CCn2c(-c3ccccc3)nc(C(=O)N[C@@H](CO)C(C)(C)C)c2C1` [Compound 67, (R)-N-(1-hydroxy-3,3-dimethylbutan-2-yl)-7-methyl-3-phenyl-5,6,7,8-tetrahydroimidazo[1,5-a]pyrazine-1-carboxamide]: the EC50 in assay [1] and in assay [2] was > 10000 nM each time.

Regarding `CC(C)CN1CCn2c(-c3ccccc3)nc(C(=O)N3CCOCC3)c2C1` [Compound 70, (7-isobutyl-3-phenyl-5,6,7,8-tetrahydroimidazo[1,5-a]pyrazin-1-yl)(morpholino)methanone], the EC50 in assay [1] (setting [3]) was > 10000 nM. For the same compound, the “+/− RCB2” value in assay [2] is listed as “−”.

As to `CNC(=O)[C@@H](NC(=O)c1nc(-c2cnn(C)c2)n2c1CNCC2)C(C)(C)C` [Compound 17, (S)-N-(3,3-dimethyl-1-(methylamino)-1-oxobutan-2-yl)-3-(1-methyl-1H-pyrazol-4-yl)-5,6,7,8-tetrahydroimidazo[1,5-a]pyrazine-1-carboxamide], the EC50 in assay [1] (setting [3]) and in assay [2] (setting [4]) was > 10000 nM throughout.

For `CNC(=O)[C@@H](NC(=O)c1nc(-c2ccccc2)n2c1CN(Cc1cccn1C)CC2)C(C)(C)C` [Compound 71, (S)-N-(3,3-dimethyl-1-(methylamino)-1-oxobutan-2-yl)-7-((1-methyl-1H-pyrrol-2-yl)methyl)-3-phenyl-5,6,7,8-tetrahydroimidazo[1,5-a]pyrazine-1-carboxamide], in assay [1], the EC50 was > 10000 nM. In assay [2], the “+/− RCB2” value is on record as “−”.

Take `CNC(=O)[C@@H](NC(=O)c1nc(-c2cc(Cl)ccc2F)n2c1CN(C)CC2)C(C)(C)C` [Compound 246, (S)-3-(5-chloro-2-fluorophenyl)-N-(3,3-dimethyl-1-(methylamino)-1-oxobutan-2-yl)-7-methyl-5,6,7,8-tetrahydroimidazo[1,5-a]pyrazine-1-carboxamide]: the EC50 in assay [1] is > 10000 nM. For the same compound, the “+/− RCB2” value in assay [2] is recorded as “−”.

Turning to `CNC(=O)[C@H](C)NC(=O)c1nc(-c2ccccc2)n2c1CNCC2` [Compound 28, (S)-N-(1-(methylamino)-1-oxopropan-2-yl)-3-phenyl-5,6,7,8-tetrahydroimidazo[1,5-a]pyrazine-1-carboxamide], the EC50 in assay [1] (setting [3]) and in assay [2] (setting [4]) was > 10000 nM throughout.

As to `CNC(=O)[C@@H](NC(=O)c1nc(-c2cccc(Cl)c2)n2c1CNCC2)C(C)(C)C` [Compound 18, (S)-3-(3-chlorophenyl)-N-(3,3-dimethyl-1-(methylamino)-1-oxobutan-2-yl)-5,6,7,8-tetrahydroimidazo[1,5-a]pyrazine-1-carboxamide], the half-maximal effective concentration (EC50) in assay [1] was > 10000 nM. The “+/− RCB2” value in assay [2] is on record as “−”.

Regarding `CNC(=O)[C@H](CC(C)(C)C)NC(=O)c1nc(-c2ccc(Cl)c(F)c2)n2c1CN(C)CCC2` [Compound 550, (S)-3-(4-chloro-3-fluorophenyl)-N-(4,4-dimethyl-1-(methylamino)-1-oxopentan-2-yl)-8-methyl-6,7,8,9-tetrahydro-5H-imidazo[1,5-a][1,4]diazepine-1-carboxamide], the EC50 in assay [1] is > 10000 nM. Also, the “+/− RCB2” value in assay [2] is “−”.

Turning to `CCS(=O)(=O)N1CCn2c(-c3ccccc3)nc(C(=O)N[C@H](C)C3CCCCC3)c2C1` [Compound 111, (R)-N-(1-cyclohexylethyl)-7-(ethylsulfonyl)-3-phenyl-5,6,7,8-tetrahydroimidazo[1,5-a]pyrazine-1-carboxamide], the EC50 in assay [1] and in assay [2] was > 10000 nM throughout.

On to `CNC(=O)[C@@H](NC(=O)c1nc(-c2ccccc2)n2c1CN(Cc1ccco1)CC2)C(C)(C)C` [Compound 64, (S)-N-(3,3-dimethyl-1-(methylamino)-1-oxobutan-2-yl)-7-(furan-2-ylmethyl)-3-phenyl-5,6,7,8-tetrahydroimidazo[1,5-a]pyrazine-1-carboxamide], for which the 50% effective concentration (EC50) in assay [1] was > 10000 nM. Further, the “+/− RCB2” value in assay [2] was “−”.

Regarding `CNC(=O)[C@@H](NC(=O)c1nc(-c2ccoc2)n2c1CNCC2)C(C)(C)C` [Compound 12, (S)-N-(3,3-dimethyl-1-(methylamino)-1-oxobutan-2-yl)-3-(furan-3-yl)-5,6,7,8-tetrahydroimidazo[1,5-a]pyrazine-1-carboxamide], the concentration for a half-maximal effect (EC50) in assay [1] was > 10000 nM. The “+/− RCB2” value in assay [2] is reported as “−”.

Turning to `CNC(=O)[C@@H](NC(=O)c1nc(-c2ccc(C(N)=O)c(F)c2)n2c1CN(C)CCC2)C(C)(C)C` [Compound 427, (S)-3-(4-carbamoyl-3-fluorophenyl)-N-(3,3-dimethyl-1-(methylamino)-1-oxobutan-2-yl)-8-methyl-6,7,8,9-tetrahydro-5H-imidazo[1,5-a][1,4]diazepine-1-carboxamide], the half-maximal effective concentration (EC50) in assay [1] and in assay [2] was > 10000 nM each time.

For the compound `CN1CCn2c(-c3ccccc3)nc(C(=O)N[C@H](C(N)=O)C(C)(C)C)c2C1` [Compound 285, (S)-N-(1-amino-3,3-dimethyl-1-oxobutan-2-yl)-7-methyl-3-phenyl-5,6,7,8-tetrahydroimidazo[1,5-a]pyrazine-1-carboxamide], the concentration for a half-maximal effect (EC50) in assay [1] and in assay [2] was > 10000 nM in each case.

With `CNC(=O)[C@@H](NC(=O)c1nc(/C=C/CN2CCCCC2)n2c1CN(C)CCC2)C(C)(C)C` [Compound 510, (S,E)-N-(3,3-dimethyl-1-(methylamino)-1-oxobutan-2-yl)-8-methyl-3-(3-(piperidin-1-yl)prop-1-enyl)-6,7,8,9-tetrahydro-5H-imidazo[1,5-a][1,4]diazepine-1-carboxamide], in assay [1], the EC50 is > 10000 nM. In addition, the “+/− RCB2” value in assay [2] was “+”.

`CC(=O)N1CCn2c(-c3ccccc3)nc(C(=O)Nc3ccccc3)c2C1` [Compound 173, 7-acetyl-N,3-diphenyl-5,6,7,8-tetrahydroimidazo[1,5-a]pyrazine-1-carboxamide]: the half-maximal effective concentration (EC50) in assay [1] (setting [3]) and in assay [2] (setting [4]) was > 10000 nM throughout.

For `CNC(=O)[C@@H](NC(=O)c1nc(-c2ccc(C(=O)OC)cc2F)n2c1CN(C)CCC2)C(C)(C)C` [Compound 387, (S)-methyl 4-(1-(3,3-dimethyl-1-(methylamino)-1-oxobutan-2-ylcarbamoyl)-8-methyl-6,7,8,9-tetrahydro-5H-imidazo[1,5-a][1,4]diazepin-3-yl)-3-fluorobenzoate], the concentration for a half-maximal effect (EC50) in assay [1] and in assay [2] was > 10000 nM in each case.

Turning to `CN1CCCn2c(-c3ccccc3)nc(C(=O)N[C@H](C(=O)NCCF)C(C)(C)C)c2C1` [Compound 476, (S)-N-(1-(2-fluoroethylamino)-3,3-dimethyl-1-oxobutan-2-yl)-8-methyl-3-phenyl-6,7,8,9-tetrahydro-5H-imidazo[1,5-a][1,4]diazepine-1-carboxamide], in assay [1], the EC50 is > 10000 nM. Moreover, the “+/− RCB2” value in assay [2] is reported as “+”.

In the case of `CNC(=O)[C@@H](NC(=O)c1nc(-c2cccc(Cl)c2)n2c1CN(C)CCC2)C(C)(C)C` [Compound 433, (S)-3-(3-chlorophenyl)-N-(3,3-dimethyl-1-(methylamino)-1-oxobutan-2-yl)-8-methyl-6,7,8,9-tetrahydro-5H-imidazo[1,5-a][1,4]diazepine-1-carboxamide], the EC50 in assay [1] and in assay [2] was > 10000 nM in each case.

On to `CNC(=O)[C@@H]1CCCN1C(=O)c1nc(-c2ccccc2)n2c1CN(C)CCC2` [Compound 603, (S)-N-methyl-1-(8-methyl-3-phenyl-6,7,8,9-tetrahydro-5H-imidazo[1,5-a][1,4]diazepine-1-carbonyl)pyrrolidine-2-carboxamide], for which the EC50 in assay [1] and in assay [2] was > 10000 nM each time.

Turning to `CN1CCn2c(-c3ccc(Cl)cc3F)nc(C(=O)N3CCC4(CC3)C(=O)NCN4c3ccccc3)c2C1` [Compound 214, 8-(3-(4-chloro-2-fluorophenyl)-7-methyl-5,6,7,8-tetrahydroimidazo[1,5-a]pyrazine-1-carbonyl)-1-phenyl-1,3,8-triazaspiro[4.5]decan-4-one], in assay [1], the concentration for a half-maximal effect (EC50) was > 10000 nM. Also, the “+/− RCB2” value in assay [2] is recorded as “−”.
